According to patent publication US20080269161A1, “Compositions and Methods Relating to Mitochondrial Hyperpolarization in Neurological Disease” (priority 2005, published 2008):
“Also recorded” adds a separate entry of the source.

Tested on: CA1 pyramidal neurons in hippocampal slices
Design: species or system rodent
Experimental: CA1 pyramidal neurons were exposed to 1 μM cPAF or vehicle for 30-60min and simultaneously imaged and recorded by whole-cell patch clamp before and after delivery of a high-frequency stimulus (HFS: three 1s, 100 Hz trains, every 20 s) applied to Schaffer collateral axons via a bipolar stimulating electrode planted in the stratum radiatum. (A) Dendrite beading in a cPAF-exposed cell 45min after HFS, with no disruption of dendrite or spine morphology in control cells. […] (C) Excitatory synaptic transmission between Shaffer collateral axons and CA1 pyramidal neurons is strongly potentiated following HFS in control slices. […] (EPSP traces at baseline and 40 min from representative control cell and cPAF-treated beaded cell are at right.) […]
Explant hippocampal slices are exposed to HIV-1 neurotoxins±agents that reverse mitochondrial hyperpolarization. Beading and LTP are then be measured:
Hippocampal slice preparation: Brains from anesthetized P14-28 rodents are rapidly removed and cooled in sucrose based artificial cerebrospinal fluid (ACSF) containing in mM: 110 sucrose, 60 NaCl, 3 KCl, 1.25 NaH2PO4, 28 NaHCO3, 10 D-glucose, 0.5 CaCl2, 7 MgSO4, 0.6 ascorbate. The brains are blocked and fixed to a specimen stage with cyanoacrylate. Coronal slices (250-400 μm in thickness) are cut with a vibroslicer (World Precision Instruments, Fla., USA) equipped with a Peltier cooling system. The middle four to six slices of each hippocampus (with the entorhinal cortex removed) are placed into a holding chamber prior to use.
Measuring dendritic beading and postsynaptic potentials in single CA1 cells in hippocampal slices: Dendritic arbors of individual CA1 pyramidal cells are imaged while simultaneously recording excitatory postsynaptic potentials in the same cell by patch clamp recordings in whole-cell configuration. Recording pipettes ([…] resistance) are pulled from 1.5 mm borosilicate glass using a horizontal Flaming/Brown micropipette puller (Sutter Instrument Co, Calif.), fire-polished, and filled with intracellular recording solution (in mM: KCl 20, potassium gluconate 130, EGTA 0.5, HEPES 10, MgSO4 2, ATP 2.5, GTP 0.5, pH 7.3). In order to visualize dendrites of the recorded cell, Alexa 568 hydrazide (30 μM) is included in the recording pipette and is injected by small negative current pulses for 15-20 min prior to recording in order to fill the dendritic arbor. Hippocampal slices are bathed in artificial CSF (containing, in mM: NaCl 125, KCl 2.5, NaH2PO4 1.25, NaHCO3 25, CaCl2 2, MgCl2 1, D-glucose 25, oxygenated and buffered with 5% CO2). Membrane potentials of CA1 pyramidal cells are recorded in current clamp mode, and postsynaptic potentials are evoked by test pulses of constant-current stimulation applied via a bipolar stimulating electrode placed 50-200 μm away in the stratum radiatum. Bicuculline (10 μM) is included in the bath to isolate excitatory postsynaptic potentials. After at least 10 min of consistent baseline recording, a high-frequency LTP induction stimulus (HFS, consisting of four 1 s, 100 Hz trains delivered every 15 s) is applied. EPSPs are recorded for 60 min following HFS. At the same time, dendrites are imaged at 40× magnification by fluorescence microscopy, using a shutter to limit fluorescent light exposure and prevent phototoxic injury to the slice. Serial images of dendrites are compared to detect development of focal swellings along dendritic shafts following HFS. Cells are scored as beaded if swellings develop along any of their dendrites.
Field potential recording and induction of LTP in hippocampal slices: Single-cell recordings are complemented by extracellular field potential recordings: while single cell recordings allow correlation of electrophysiologic data with dendritic beading in the same cell, extracellular recordings sample responses from populations of dendrites and are less invasive. […]

[1] = HIV-1 neurotoxin with vehicle treatment

For `CCCCCCCCCCCCCCCCOC[C@H](COP(=O)([O-])OCC[N+](C)(C)C)OC(=O)NC` [PAF, carbamyl-platelet-activating factor], the “cells with beading elicited by HFS” value (1 μM cPAF, 30-60 min) was “half of the cells”, the “potentiation of EPSPs after HFS, cells that did not develop dendrite beading” value (1 μM cPAF, 30-60 min) was “smaller potentiation” and the “potentiation of EPSPs after HFS, cells whose dendrites did bead” value (1 μM cPAF, 30-60 min) was “failure of long-term potentiation; also recorded: not potentiated at all”. The “Beading Prediction” value [1] was “Occurs”, the “LTP Prediction” value [1] was “Failure” and the Δψm [1] was “Hyperpolarized”.
